Laboratory results as given in patent US8999964B2, “TGR5 modulators and methods of use thereof” (Intercept Pharmaceuticals, Inc., priority 2008, dated 2015).
pEC50: −log10 of the molar value. Read-outs that look alike come from different tables or passages of the source. Marks after values point to notes of the source that are not given here. Blank lines part the entries; values can stand above or below the molecule they belong to.

Tests used:
[1] = target: T1, hFXR (Homo sapiens, UniProt Q96RI1); assay: Alphascreen coactivator recruitment assay on FXR; settings: Table 6; coactivator recruitment (Alphascreen)
T1 sequence (Q96RI1 262-486 limits assumed): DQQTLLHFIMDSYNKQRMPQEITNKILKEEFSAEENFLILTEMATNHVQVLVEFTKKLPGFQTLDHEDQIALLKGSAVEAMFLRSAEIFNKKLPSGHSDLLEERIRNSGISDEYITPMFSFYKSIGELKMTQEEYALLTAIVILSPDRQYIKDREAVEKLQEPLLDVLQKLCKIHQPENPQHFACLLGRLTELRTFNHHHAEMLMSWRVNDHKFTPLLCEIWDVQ

[2] = Critical micellar concentration by surface tension measurements; type: physicochemical; settings: […] NaCl water solution
Protocol: The critical micellar concentration (CMC) was determined by surface tension (ST) measurements using a maximum bubble-pressure method which give surface tension values slightly affected by potential impurities […] static methods. […] The surface tension values were plotted against the logarithm of the bile salt concentration; the regression lines corresponding to the two parts of the curve (monomeric and micellar phases) were calculated using the method of least squares, and the intersection of the lines was taken as the CMC value. From the ST vs concentration curves the value of the surface tension at the CMC (equilibrium between monomers and multimers species) was also calculated giving information about the detergency power which is related to the size of the micelles with associate surface tension lowering capacity. The CMC was evaluated by surface tension measurements in non equilibrium conditions i.e. in conditions that impurities slightly affect the surface tension results (FIG. 6). […] The presence of a hydroxyl group in the C-16 beta position reduces the hydrophobic area responsible for back to back interaction, which is to form micelles and therefore, the micelles are small and poorly detergent. This property confers to the molecule a low toxicity when accumulated in a given biological fluid or organ.

[3] = system: intestinal bacteria; assay: In vitro metabolic stability in human stools culture; type: in vitro ADME
Protocol: Homogenized fresh human stools (500 mg) were transferred into sterile vials to which 5 mL of sterilized chopped meat-glucose medium (Scott Lab., Fiskville, R.I.) was added. BAs were then added at a final concentration of 0.05 mM. Vials were incubated at 37° C.; then, at 0, 1, 2, 4, 8 and 24 h after the addition of the BA, the reaction was stopped with 150 μL of 30% KOH. The samples were centrifuged at 3500 rpm for 10 min; from the supernatant the BA were isolated by C-18 solid-phase extraction and analyzed by TLC and HPLC-ES-MS/MS.
Thin-layer chromatography (TLC), utilizing silica gel 0.25 mm thickness plates (Merck, Darmstat, Germany), was employed as the first screening test. The solvent system used for the separation of conjugated BA was composed of propionic acid/isoamyl acetate/water/N-propanol (3:4:1:2, v/v/v/v; solvent I), and that of the unconjugated BA was acetic acid/carbon tetrachloride/isopropyl ether/isoamyl acetate/water/N-propanol/benzene (1:4:6:8:2:2, v/v/v/v/v/v; solvent II).

[4] = system: HepG2 cells; assay: HepG2 apoptosis (caspase-3 activation); type: cell-based; settings: Homo sapiens, HepG2, 4 h, read-out: APOPTOSIS Caspase-3 activation EC50
[5] = system: HepG2 cells; assay: HepG2 necrosis (LDH release); type: cell-based; settings: Homo sapiens, HepG2, 4 h, read-out: NECROSIS LDH release EC50
[6] = in vitro; settings: human
[7] = 1-Octanol/water partition coefficient (shake-flask); settings: bile acids as ionized species, pH 8
[8] = Bile fistula rat, femoral (iv) infusion: bile flow, biliary secretion, metabolism; settings: iv infusion, bile fistula rat
[9] = target: T2, bovine serum albumin (Bos taurus, UniProt P02769); assay: Albumin binding by equilibrium dialysis; type: in vitro ADME; parameters: 5% bovine serum albumin-saline solution (pH 7.2); from tissue; host or cells: bovine serum (by the name of the product); settings: 100 μM BA in 5% bovine serum albumin-saline, pH 7.2
T2 sequence (P02769 25-607): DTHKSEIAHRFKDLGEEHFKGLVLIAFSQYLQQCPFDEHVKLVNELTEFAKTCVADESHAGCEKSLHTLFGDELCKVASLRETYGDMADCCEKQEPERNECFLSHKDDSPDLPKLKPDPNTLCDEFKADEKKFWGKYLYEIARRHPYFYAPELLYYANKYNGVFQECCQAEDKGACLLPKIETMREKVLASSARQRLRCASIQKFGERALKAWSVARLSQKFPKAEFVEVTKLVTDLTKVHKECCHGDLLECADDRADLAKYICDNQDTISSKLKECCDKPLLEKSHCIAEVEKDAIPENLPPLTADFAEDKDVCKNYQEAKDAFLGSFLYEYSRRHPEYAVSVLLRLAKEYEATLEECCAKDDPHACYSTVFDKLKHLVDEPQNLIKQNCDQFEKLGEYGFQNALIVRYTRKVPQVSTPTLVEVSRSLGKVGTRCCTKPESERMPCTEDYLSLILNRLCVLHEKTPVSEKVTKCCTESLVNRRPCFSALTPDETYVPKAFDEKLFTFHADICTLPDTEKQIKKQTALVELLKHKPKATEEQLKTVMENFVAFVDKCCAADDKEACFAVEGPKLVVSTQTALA
Protocol: The extent of albumin binding was evaluated by equilibrium dialysis at a fixed BA-albumin ratio. Each BA was dissolved at a concentration of 100 μM in 5% bovine serum albumin-saline solution (pH 7.2) and left to stand for 24 h at 25° C. Two milliliters of this solution was dialyzed in cellulose sacs having a molecular weight cut-off of 12,000-14,000 Dalton against 25 ml of saline solution. The system was equilibrated by gently shaking for 72 h at 25° C. BA concentrations of the dialyzed solution (corresponding to the free unbound fraction) and of the starting solution were determined with HPLC-ESI-MS/MS in the same conditions of the previous analysis.
The percentage of albumin binding was calculated from the initial BA concentration and from the unbound concentration in the dialyzed fraction.

[10] = […] NaCl water solution; *values from literature; cited from earlier work
[11] = target: T2, bovine serum albumin; settings: cited from earlier work
[12] = previous study, cited from earlier work
[13] = system: HepG2 cells; assay: HepG2 cytotoxicity (ATP decrease, ATP-Lite); settings: read-out: CYTOTOXICITY ATP decrease EC50, 4 h
[14] = pH 1
[15] = target: T3, LXRα (Homo sapiens, UniProt Q13133); assay: LXR coactivator recruitment (Alphascreen); type: biochemical; settings: Table 6
T3 sequence (Q13133 1-447): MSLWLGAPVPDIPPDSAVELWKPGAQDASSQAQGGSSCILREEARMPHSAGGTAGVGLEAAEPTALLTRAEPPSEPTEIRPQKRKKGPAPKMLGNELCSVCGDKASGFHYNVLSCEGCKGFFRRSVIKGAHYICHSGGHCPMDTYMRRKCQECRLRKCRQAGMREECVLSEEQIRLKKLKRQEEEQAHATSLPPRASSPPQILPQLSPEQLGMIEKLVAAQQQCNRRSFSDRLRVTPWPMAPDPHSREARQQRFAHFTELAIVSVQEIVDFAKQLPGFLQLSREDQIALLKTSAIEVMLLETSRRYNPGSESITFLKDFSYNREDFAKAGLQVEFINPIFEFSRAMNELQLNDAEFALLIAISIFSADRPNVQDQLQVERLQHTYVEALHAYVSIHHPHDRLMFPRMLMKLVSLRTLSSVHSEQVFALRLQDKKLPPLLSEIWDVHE

[16] = target: T4, CAR (Homo sapiens, UniProt Q14994); assay: CAR coactivator recruitment (Lanthascreen); type: biochemical; settings: Table 6; *: data representing inverse agonism; read-out: CAR Activation EC50
T4 construct: purchased Invitrogen
T4 sequence (Q14994 109-352 limits assumed): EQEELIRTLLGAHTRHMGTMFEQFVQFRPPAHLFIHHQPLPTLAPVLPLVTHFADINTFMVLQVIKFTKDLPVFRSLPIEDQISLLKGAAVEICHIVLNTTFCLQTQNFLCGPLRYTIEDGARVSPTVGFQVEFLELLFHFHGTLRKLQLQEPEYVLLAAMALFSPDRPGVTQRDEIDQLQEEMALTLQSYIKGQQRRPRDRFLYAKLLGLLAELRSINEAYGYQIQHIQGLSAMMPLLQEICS

[17] = target: T5, VDR (Homo sapiens, UniProt P11473); assay: VDR activation, NR selectivity assay; type: biochemical; settings: Table 6
T5 construct: purchased Invitrogen
T5 sequence (P11473 127-423 limits assumed): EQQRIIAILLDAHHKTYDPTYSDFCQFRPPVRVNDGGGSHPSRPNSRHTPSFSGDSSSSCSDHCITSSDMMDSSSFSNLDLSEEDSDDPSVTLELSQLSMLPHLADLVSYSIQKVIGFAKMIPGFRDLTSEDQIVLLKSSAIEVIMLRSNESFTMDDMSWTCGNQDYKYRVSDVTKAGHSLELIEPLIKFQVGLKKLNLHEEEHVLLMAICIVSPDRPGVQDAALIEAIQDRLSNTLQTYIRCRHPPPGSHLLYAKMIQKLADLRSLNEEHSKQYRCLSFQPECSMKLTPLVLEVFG

[18] = pH 8
[19] = system: HepG2 cells
[20] = target: T6, PPARδ (Homo sapiens, UniProt Q03181); assay: PPARδ activation, NR selectivity assay; settings: Table 6
T6 sequence (Q03181 211-439 limits assumed): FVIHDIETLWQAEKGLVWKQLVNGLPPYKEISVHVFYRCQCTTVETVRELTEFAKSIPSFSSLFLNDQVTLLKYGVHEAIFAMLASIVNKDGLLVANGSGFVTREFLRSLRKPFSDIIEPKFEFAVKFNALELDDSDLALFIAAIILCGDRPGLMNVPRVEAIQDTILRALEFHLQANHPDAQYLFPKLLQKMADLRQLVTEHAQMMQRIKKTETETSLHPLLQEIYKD

FXR Activation EC50 [1]: No activity
Compound: C[C@H](CCC(=O)O)[C@H]1CC[C@H]2[C@@H]3[C@H](O)C[C@@H]4C[C@H](O)CC[C@]4(C)[C@H]3C[C@H](O)[C@]12C [CA, cholic acid, reference compound]

Compound: C[C@H](CCC(=O)O)[C@H]1CC[C@H]2[C@@H]3[C@H](O)C[C@@H]4C[C@H](O)CC[C@]4(C)[C@H]3CC[C@]12C [CDCA, chenodeoxycholic acid, reference compound]
CMC […] Na+ [2]: 3.2 mM | STCMC: Surface Tension at CMC [2]: 45.5 Dyne/cm | Metabolism in human stool cultures [3]: almost completely metabolized | Half-life time in human stool cultures ([3]; 7α-dehydroxylation, 0.05 mM, 37° C.): almost one hour | pEC50 [4]: 3.05 | pEC50 [5]: < 3.00 | EC50 at 4 h [6]: 650 µM | LogPA-: 1-octanol-water partition coefficient [7]: 2.2 | Bile flow with respect to control [8]: No significant differences | Maximum bile flow rate ([8]; control 70): 4.8 mL/h/kg | Albumin Binding [9]: 93%

Compound: C[C@H](CCC(=O)O)[C@H]1CCC2C3C(CC[C@@]21C)[C@@]1(C)CC[C@@H](O)CC1[C@@H](C)[C@@H]3O (some centres unmarked) [Compound 6MUDCA]
CMC […] Na+ [10]: 4.2* mM | Albumin Binding [11]: 80* %

Compound: C[C@H](CCC(=O)O)[C@H]1CC[C@H]2[C@@H]3CC[C@@H]4C[C@H](O)CC[C@]4(C)[C@H]3CC[C@]12C [LCA, lithocholic acid]
pEC50 [4]: 4.19 | pEC50 [5]: 3.98

Compound: CC1(C)CC[C@]2(C(=O)O)CC[C@]3(C)C(=CC[C@@H]4[C@@]5(C)CC[C@H](O)C(C)(C)[C@@H]5CC[C@]43C)[C@@H]2C1 [OA, oleanolic acid]
Toxicity in animals ([12]; 100 mg/kg/day): some signs of toxicity | Tolerability in animals ([12]; lower dose than 100 mg/kg/day): well tolerated

Compound: CN[C@@H]1C[C@H]2O[C@@](C)([C@@H]1OC)n1c3ccccc3c3c4c(c5c6ccccc6n2c5c31)C(=O)NC4 [Staurosporine]
pEC50 [13]: 4.82

Ws: water solubility [14]: hs
Compound: C[C@H](CCC(=O)NCCS(=O)(=O)O)[C@H]1CC[C@H]2[C@@H]3[C@H](O)C[C@@H]4C[C@H](O)CC[C@]4(C)[C@H]3CC[C@]12C [TCDCA]
CMC […] Na+ [10]: 3.0* mM | Albumin Binding [11]: 70* %

Ws: water solubility [14]: hs
Compound: C[C@H](CCC(=O)NCCS(=O)(=O)O)[C@H]1CC[C@H]2[C@@H]3[C@@H](O)C[C@@H]4C[C@H](O)CC[C@]4(C)[C@H]3CC[C@]12C [TUDCA]
CMC […] Na+ [10]: 2.2* mM | Albumin Binding [11]: 67* %

Compound: C[C@H](CCC(=O)O)[C@H]1CC[C@H]2[C@@H]3[C@@H](O)C[C@@H]4C[C@H](O)CC[C@]4(C)[C@H]3CC[C@]12C [UDCA]
LXRα Activation EC50 [15]: No activity | pEC50 [16]: < 3.60 | VDR Activation EC50 [17]: No activity | CMC […] Na+ [2]: 6.0 mM | STCMC: Surface Tension at CMC [2]: 50.5 Dyne/cm | Ws: water solubility [14]: 7.5 µM | LogPA-: 1-octanol-water partition coefficient [18]: 2.2 | pEC50 [19]: < 3.00 | PPARδ Activation EC50 [20]: No activity | Albumin Binding [9]: 94%
